Assay results taken from ChEMBL document CHEMBL4270587, “Difuran-substituted quinoxalines as a novel class of PI3Kα H1047R mutant inhibitors: Synthesis, biological evaluation and structure-activity relationship” (Eur J Med Chem, 2018).
pEC50, pIC50: −log10 of the molar value. Blank lines part the entries; values can stand above or below the compound they belong to.

Legend:
HCT-116 [1] = experiment: cells; details: Homo sapiens, HCT-116, 72 h
[2] = molecular target: PI3-kinase p110-alpha/p85-alpha (Homo sapiens, UniProt P42336, H1047R); experiment: Inhibition of recombinant full length PI3K p85alpha/p110alpha H1047R mutant (unknown origin) expressed in baculovirus infected sf9 cells using PIP2 as substrate preincubated for 10 mins followed by ATP addition and measured after 45 mins by HTRF assay
PI3-kinase p110-alpha/p85-alpha (Homo sapiens, UniProt P42336, H1047R), sequence (P42336 whole entry H1047R, looked up): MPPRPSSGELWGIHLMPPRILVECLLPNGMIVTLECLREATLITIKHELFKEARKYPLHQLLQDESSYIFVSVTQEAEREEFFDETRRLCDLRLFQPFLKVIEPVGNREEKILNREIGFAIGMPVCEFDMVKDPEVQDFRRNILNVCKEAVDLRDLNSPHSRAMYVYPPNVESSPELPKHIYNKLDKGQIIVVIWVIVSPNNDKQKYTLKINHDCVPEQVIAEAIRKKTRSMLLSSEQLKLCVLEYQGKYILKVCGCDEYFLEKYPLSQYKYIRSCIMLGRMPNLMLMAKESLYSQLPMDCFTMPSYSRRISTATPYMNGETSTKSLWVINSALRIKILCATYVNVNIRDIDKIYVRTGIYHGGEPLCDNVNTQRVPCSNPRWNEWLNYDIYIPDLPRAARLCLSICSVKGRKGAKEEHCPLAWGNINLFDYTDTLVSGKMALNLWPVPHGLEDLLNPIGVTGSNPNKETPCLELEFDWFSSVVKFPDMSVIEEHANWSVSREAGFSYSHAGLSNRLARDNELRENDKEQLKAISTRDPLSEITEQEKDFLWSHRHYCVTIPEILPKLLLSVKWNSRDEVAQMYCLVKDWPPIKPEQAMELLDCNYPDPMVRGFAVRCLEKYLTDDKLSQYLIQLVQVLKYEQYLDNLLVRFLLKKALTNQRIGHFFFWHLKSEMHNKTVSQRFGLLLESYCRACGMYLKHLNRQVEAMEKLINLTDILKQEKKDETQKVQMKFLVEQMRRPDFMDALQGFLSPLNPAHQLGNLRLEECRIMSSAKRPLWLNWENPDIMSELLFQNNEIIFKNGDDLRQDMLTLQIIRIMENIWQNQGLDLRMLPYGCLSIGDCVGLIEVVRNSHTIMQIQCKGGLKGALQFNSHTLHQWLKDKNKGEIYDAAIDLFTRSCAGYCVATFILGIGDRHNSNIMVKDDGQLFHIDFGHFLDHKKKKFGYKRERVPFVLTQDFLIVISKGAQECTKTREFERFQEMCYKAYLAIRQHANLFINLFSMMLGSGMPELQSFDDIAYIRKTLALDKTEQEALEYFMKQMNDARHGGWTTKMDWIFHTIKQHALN

[3] = molecular target: PI3-kinase p110-alpha/p85-alpha (Homo sapiens, UniProt P42336); experiment: Inhibition of recombinant full length PI3K p110alpha/p85alpha (unknown origin) expressed in baculovirus infected sf9 cells using PIP2 as substrate preincubated for 10 mins followed by ATP addition and measured after 45 mins by HTRF assay
PI3-kinase p110-alpha/p85-alpha (Homo sapiens, UniProt P42336), sequence (P27986 whole entry): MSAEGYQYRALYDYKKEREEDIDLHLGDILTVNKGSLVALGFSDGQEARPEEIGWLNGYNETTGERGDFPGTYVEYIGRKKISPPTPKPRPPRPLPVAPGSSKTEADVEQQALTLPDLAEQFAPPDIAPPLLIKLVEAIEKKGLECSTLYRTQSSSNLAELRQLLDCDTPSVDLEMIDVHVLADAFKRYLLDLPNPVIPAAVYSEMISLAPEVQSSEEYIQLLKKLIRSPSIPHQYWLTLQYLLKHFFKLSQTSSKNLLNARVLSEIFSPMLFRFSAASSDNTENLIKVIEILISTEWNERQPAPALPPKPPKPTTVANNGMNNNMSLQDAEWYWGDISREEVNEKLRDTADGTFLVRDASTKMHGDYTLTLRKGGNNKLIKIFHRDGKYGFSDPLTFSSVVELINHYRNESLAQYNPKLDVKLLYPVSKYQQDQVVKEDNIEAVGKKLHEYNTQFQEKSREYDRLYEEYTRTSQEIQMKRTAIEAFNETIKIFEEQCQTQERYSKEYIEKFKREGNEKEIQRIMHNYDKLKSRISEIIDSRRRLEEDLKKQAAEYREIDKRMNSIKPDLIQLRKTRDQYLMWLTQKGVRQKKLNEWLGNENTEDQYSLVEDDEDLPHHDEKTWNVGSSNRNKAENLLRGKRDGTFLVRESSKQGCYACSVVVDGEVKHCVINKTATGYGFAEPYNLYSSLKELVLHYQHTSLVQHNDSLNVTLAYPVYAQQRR
PI3-kinase p110-alpha/p85-alpha (Homo sapiens, UniProt P42336), sequence (P42336 whole entry): as the sequence (P42336 whole entry H1047R, looked up) above, with R1047H counted along it

MCF7 = experiment: cells; details: Homo sapiens, MCF7, 72 h
Description: Antiproliferative activity against human MCF7 cells after 72 hrs by CCK8 assay

[4] = Inhibition of mTORC1 (unknown origin); parameters: species or system Homo sapiens
HCT-116 [5] = experiment: Cell cycle arrest in human HCT116 cells assessed as accumulation at G1 phase at 20 uM after 24 hrs by propidium iodide staining based flow cytometry (reference value: 38.72%); type: functional
HCT-116 [6] = experiment: Induction of apoptosis in human HCT116 cells assessed as live cells at 6.25 uM after 24 hrs by Annexin V-FITC/propidium iodide staining based flow cytometry (reference value: 89.89%); type: functional
HCT-116 [7] = experiment: Induction of apoptosis in human HCT116 cells assessed as live cells at 12.5 uM after 24 hrs by Annexin V-FITC/propidium iodide staining based flow cytometry (reference value: 89.89%); type: functional
[8] = molecular target: Phosphatidylinositol 4,5-bisphosphate 3-kinase catalytic subunit gamma isoform (Homo sapiens, UniProt P48736); experiment: Inhibition of PI3K-gamma (unknown origin) after 40 mins by Kinase-Glo assay
Phosphatidylinositol 4,5-bisphosphate 3-kinase catalytic subunit gamma isoform, sequence (P48736 whole entry, canonical isoform): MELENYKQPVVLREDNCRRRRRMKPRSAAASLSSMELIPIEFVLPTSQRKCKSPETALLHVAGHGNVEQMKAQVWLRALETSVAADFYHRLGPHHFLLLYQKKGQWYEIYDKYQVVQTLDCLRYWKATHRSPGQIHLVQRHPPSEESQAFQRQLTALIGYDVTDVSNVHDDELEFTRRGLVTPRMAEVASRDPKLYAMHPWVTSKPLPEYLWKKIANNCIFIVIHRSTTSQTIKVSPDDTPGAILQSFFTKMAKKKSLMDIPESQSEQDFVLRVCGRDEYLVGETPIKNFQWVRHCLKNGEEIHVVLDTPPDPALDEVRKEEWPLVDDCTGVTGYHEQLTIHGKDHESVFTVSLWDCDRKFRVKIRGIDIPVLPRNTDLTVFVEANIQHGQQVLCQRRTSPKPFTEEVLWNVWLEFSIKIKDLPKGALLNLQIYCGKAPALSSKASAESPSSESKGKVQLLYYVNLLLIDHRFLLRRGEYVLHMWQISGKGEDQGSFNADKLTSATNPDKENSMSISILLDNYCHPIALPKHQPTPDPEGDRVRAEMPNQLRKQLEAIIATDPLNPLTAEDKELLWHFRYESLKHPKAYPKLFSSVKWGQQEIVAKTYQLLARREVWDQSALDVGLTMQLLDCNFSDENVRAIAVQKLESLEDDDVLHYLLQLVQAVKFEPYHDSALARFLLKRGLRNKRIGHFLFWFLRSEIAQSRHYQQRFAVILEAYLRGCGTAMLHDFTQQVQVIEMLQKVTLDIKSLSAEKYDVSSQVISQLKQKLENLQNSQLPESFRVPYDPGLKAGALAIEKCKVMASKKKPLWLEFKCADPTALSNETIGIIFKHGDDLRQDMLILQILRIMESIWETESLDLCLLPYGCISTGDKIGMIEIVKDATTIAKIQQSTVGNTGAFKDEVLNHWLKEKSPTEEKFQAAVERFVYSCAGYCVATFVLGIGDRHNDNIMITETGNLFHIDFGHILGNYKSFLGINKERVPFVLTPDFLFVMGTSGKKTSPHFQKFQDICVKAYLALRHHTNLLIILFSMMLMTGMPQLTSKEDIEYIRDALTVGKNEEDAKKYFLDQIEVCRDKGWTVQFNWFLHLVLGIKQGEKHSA

HCT-116 [9] = experiment: Cell cycle arrest in human HCT116 cells assessed as accumulation at G1 phase after 24 hrs by propidium iodide staining based flow cytometry; type: functional
HCT-116 [10] = experiment: Cell cycle arrest in human HCT116 cells assessed as accumulation at S-phase at 10 uM after 24 hrs by propidium iodide staining based flow cytometry (reference value: 29.81%); type: functional
HCT-116 [11] = experiment: Cell cycle arrest in human HCT116 cells assessed as accumulation at G2/M-phase at 10 uM after 24 hrs by propidium iodide staining based flow cytometry (reference value: 31.47%); type: functional
HCT-116 [12] = experiment: Induction of apoptosis in human HCT116 cells assessed as early apoptotic cells at 25 uM after 24 hrs by Annexin V-FITC/propidium iodide staining based flow cytometry (reference value: 2.24%); type: functional
HCT-116 [13] = experiment: Cell cycle arrest in human HCT116 cells assessed as accumulation at G1 phase at 5 uM after 24 hrs by propidium iodide staining based flow cytometry (reference value: 38.72%); type: functional
HCT-116 [14] = experiment: Induction of apoptosis in human HCT116 cells assessed as late apoptotic cells at 6.25 uM after 24 hrs by Annexin V-FITC/propidium iodide staining based flow cytometry (reference value: 7.2%); type: functional
HCT-116 [15] = experiment: Induction of apoptosis in human HCT116 cells assessed as early apoptotic cells at 12.5 uM after 24 hrs by Annexin V-FITC/propidium iodide staining based flow cytometry (reference value: 2.24%); type: functional
HCT-116 [16] = experiment: Induction of apoptosis in human HCT116 cells assessed as increase in active caspase-9 protein expression after 72 hrs by Western blot analysis; type: functional, cell-based
HCT-116 [17] = experiment: Induction of apoptosis in human HCT116 cells assessed as necrotic cells at 25 uM after 24 hrs by Annexin V-FITC/propidium iodide staining based flow cytometry (reference value: […]); type: functional
HCT-116 [18] = experiment: Cell cycle arrest in human HCT116 cells assessed as accumulation at S-phase at 5 uM after 24 hrs by propidium iodide staining based flow cytometry (reference value: 29.81%); type: functional
HCT-116 [19] = experiment: Induction of apoptosis in human HCT116 cells assessed as increase in active caspase-8 protein expression after 72 hrs by Western blot analysis; type: functional, cell-based
HCT-116 [20] = experiment: Induction of apoptosis in human HCT116 cells assessed as necrotic cells at 12.5 uM after 24 hrs by Annexin V-FITC/propidium iodide staining based flow cytometry (reference value: […]); type: functional
[21] = molecular target: Phosphatidylinositol 4,5-bisphosphate 3-kinase catalytic subunit beta isoform (Homo sapiens, UniProt P42338); experiment: Inhibition of PI3K-beta (unknown origin) after 40 mins by Kinase-Glo assay
Phosphatidylinositol 4,5-bisphosphate 3-kinase catalytic subunit beta isoform, sequence (P42338 whole entry, canonical isoform): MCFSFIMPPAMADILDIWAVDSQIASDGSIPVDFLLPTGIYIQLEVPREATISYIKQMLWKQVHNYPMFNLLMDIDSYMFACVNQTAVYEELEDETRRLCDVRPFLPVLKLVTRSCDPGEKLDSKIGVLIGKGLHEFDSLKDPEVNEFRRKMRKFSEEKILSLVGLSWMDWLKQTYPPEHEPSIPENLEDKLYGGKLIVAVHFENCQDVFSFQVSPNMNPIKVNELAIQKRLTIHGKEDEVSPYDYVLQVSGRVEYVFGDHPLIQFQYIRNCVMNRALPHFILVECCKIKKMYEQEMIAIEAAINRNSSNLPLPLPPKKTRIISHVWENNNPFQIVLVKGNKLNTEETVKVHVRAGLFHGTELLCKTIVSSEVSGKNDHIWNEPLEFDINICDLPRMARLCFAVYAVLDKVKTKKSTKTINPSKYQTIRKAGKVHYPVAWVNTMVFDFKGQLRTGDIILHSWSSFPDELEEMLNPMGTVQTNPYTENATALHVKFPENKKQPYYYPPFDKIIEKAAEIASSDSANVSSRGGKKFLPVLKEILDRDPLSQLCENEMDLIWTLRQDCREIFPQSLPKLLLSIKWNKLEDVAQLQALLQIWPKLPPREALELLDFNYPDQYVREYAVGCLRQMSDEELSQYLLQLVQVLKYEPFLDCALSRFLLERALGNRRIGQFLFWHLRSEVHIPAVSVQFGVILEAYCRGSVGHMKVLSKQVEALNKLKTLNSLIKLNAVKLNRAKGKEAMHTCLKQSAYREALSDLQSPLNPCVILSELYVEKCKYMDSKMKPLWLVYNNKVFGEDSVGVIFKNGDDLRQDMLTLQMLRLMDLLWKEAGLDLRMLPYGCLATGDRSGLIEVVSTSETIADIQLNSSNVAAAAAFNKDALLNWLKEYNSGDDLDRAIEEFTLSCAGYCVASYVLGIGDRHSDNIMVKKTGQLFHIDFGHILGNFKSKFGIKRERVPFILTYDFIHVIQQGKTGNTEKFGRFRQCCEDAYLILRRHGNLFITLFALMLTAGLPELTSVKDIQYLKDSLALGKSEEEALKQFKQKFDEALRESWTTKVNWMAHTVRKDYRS

HCT-116 [22] = experiment: Cell cycle arrest in human HCT116 cells assessed as accumulation at G1 phase at 10 uM after 24 hrs by propidium iodide staining based flow cytometry (reference value: 38.72%); type: functional
HCT-116 [23] = experiment: Cell cycle arrest in human HCT116 cells assessed as accumulation at G2/M-phase at 20 uM after 24 hrs by propidium iodide staining based flow cytometry (reference value: 31.47%); type: functional
[24] = molecular target: T1, Phosphatidylinositol 4,5-bisphosphate 3-kinase catalytic subunit delta isoform (Homo sapiens, UniProt O00329); experiment: Inhibition of PI3K-delta (unknown origin) after 40 mins by Kinase-Glo assay
T1 sequence (O00329 whole entry): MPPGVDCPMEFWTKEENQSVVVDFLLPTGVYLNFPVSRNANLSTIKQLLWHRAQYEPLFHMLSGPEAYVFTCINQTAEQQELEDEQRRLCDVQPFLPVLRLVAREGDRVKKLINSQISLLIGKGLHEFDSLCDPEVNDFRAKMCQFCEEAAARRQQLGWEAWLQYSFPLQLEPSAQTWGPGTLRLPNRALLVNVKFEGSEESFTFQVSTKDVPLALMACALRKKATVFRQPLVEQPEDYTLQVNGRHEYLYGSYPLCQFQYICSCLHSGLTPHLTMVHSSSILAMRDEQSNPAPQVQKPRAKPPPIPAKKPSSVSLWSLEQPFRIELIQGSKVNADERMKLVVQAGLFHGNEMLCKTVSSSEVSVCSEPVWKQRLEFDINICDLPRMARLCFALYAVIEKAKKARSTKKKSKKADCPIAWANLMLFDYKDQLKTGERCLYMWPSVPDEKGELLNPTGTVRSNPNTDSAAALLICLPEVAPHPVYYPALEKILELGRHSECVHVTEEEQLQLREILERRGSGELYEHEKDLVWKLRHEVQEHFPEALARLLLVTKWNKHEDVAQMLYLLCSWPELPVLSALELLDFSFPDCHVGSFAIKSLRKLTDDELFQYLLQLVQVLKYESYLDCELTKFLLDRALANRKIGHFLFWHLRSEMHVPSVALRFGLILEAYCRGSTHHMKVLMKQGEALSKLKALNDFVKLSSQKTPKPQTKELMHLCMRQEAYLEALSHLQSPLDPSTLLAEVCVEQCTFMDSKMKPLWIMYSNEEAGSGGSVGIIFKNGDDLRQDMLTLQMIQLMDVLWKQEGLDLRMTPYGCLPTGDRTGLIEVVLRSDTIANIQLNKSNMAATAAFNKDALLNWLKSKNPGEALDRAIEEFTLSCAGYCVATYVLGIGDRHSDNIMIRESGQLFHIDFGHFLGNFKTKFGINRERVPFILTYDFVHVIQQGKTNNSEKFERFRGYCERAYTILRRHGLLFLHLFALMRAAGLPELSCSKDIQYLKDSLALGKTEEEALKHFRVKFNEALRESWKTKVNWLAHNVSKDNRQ

HCT-116 [25] = experiment: Induction of apoptosis in human HCT116 cells assessed as live cells at 25 uM after 24 hrs by Annexin V-FITC/propidium iodide staining based flow cytometry (reference value: 89.89%); type: functional
HCT-116 [26] = experiment: Induction of apoptosis in human HCT116 cells assessed as necrotic cells at 6.25 uM after 24 hrs by Annexin V-FITC/propidium iodide staining based flow cytometry (reference value: […]); type: functional
HCT-116 [27] = experiment: Cell cycle arrest in human HCT116 cells assessed as accumulation at G2/M-phase at 5 uM after 24 hrs by propidium iodide staining based flow cytometry (reference value: 31.47%); type: functional
HCT-116 [28] = experiment: Induction of apoptosis in human HCT116 cells assessed as late apoptotic cells at 25 uM after 24 hrs by Annexin V-FITC/propidium iodide staining based flow cytometry (reference value: 7.2%); type: functional
HCT-116 [29] = experiment: Cell cycle arrest in human HCT116 cells assessed as accumulation at S-phase at 20 uM after 24 hrs by propidium iodide staining based flow cytometry (reference value: 29.81%); type: functional
HCT-116 [30] = experiment: Induction of apoptosis in human HCT116 cells assessed as increase in active caspase-3 protein expression after 72 hrs by Western blot analysis; type: functional, cell-based
HCT-116 [31] = experiment: Induction of apoptosis in human HCT116 cells assessed as early apoptotic cells at 6.25 uM after 24 hrs by Annexin V-FITC/propidium iodide staining based flow cytometry (reference value: 2.24%); type: functional
HCT-116 [32] = experiment: Induction of apoptosis in human HCT116 cells after 24 hrs by Annexin V-FITC/propidium iodide staining based flow cytometry; type: functional, cell-based
HCT-116 [33] = experiment: Induction of apoptosis in human HCT116 cells assessed as late apoptotic cells at 12.5 uM after 24 hrs by Annexin V-FITC/propidium iodide staining based flow cytometry (reference value: 7.2%); type: functional

SMILES: FC(F)(F)c1ccccc1-c1cc2nc(-c3ccco3)c(-c3ccco3)nc2cc1Br
pIC50 (HCT-116 [1]): 4.87
pEC50 [2]: 6.77
pEC50 [3]: 7.01
pIC50 (MCF7): 4.81

SMILES: FC(F)(F)c1ccccc1-c1ccc2nc(-c3ccco3)c(-c3ccco3)nc2c1
pIC50 (HCT-116 [1]): 4.34
pEC50 [2]: 4.93
pEC50 [3]: 4.89
pIC50 (MCF7): < 4.30

pEC50 [4]: 7.10
SMILES: Cn1c(=O)n(-c2ccc(C(C)(C)C#N)cc2)c2c3cc(-c4cnc5ccccc5c4)ccc3ncc21 [DACTOLISIB]

SMILES: Fc1ccccc1-c1cc2nc(-c3ccco3)c(-c3ccco3)nc2cc1Br
Activity (HCT-116 [5]): 70.72%
Activity (HCT-116 [6]): 84.79%
Activity (HCT-116 [7]): 80.29%
pEC50 [8]: 5.00
Activity (HCT-116 [9]): Dose-dependent effect
Activity (HCT-116 [10]): 21.99%
Activity (HCT-116 [11]): 20.34%
Activity (HCT-116 [12]): 13.97%
Activity (HCT-116 [13]): 44.42%
Activity (HCT-116 [14]): 10.63%
Activity (HCT-116 [15]): 3.03%
pIC50 (HCT-116 [1]): 4.95
Activity (HCT-116 [16]): Dose-dependent effect
Activity (HCT-116 [17]): 0.88%
Activity (HCT-116 [18]): 24.42%
Activity (HCT-116 [19]): Dose-dependent effect
Activity (HCT-116 [20]): 0.96%
pEC50 [21]: 5.48
Activity (HCT-116 [22]): 57.67%
Activity (HCT-116 [23]): 11%
pEC50 [24]: 4.80
Activity (HCT-116 [25]): 61.38%
Activity (HCT-116 [26]): 1.01%
Activity (HCT-116 [27]): 32.16%
Activity (HCT-116 [28]): 23.77%
Activity (HCT-116 [29]): 18.28%
Activity (HCT-116 [30]): Dose-dependent effect
pEC50 [2]: 6.86
Activity (HCT-116 [31]): 3.57%
pEC50 [4]: < 4.52
Activity (HCT-116 [32]): Dose-dependent effect
pEC50 [3]: 7.03
Activity (HCT-116 [33]): 15.72%
pIC50 (MCF7): 4.86

SMILES: c1ccc(-c2ccc3nc(-c4ccco4)c(-c4ccco4)nc3c2)cc1
pIC50 (HCT-116 [1]): < 4.30
pEC50 [2]: 4.32
pEC50 [3]: 4.91
pIC50 (MCF7): < 4.30
